Test results: patent US4304853A, “Method of determination for proteases and antiproteases” (priority 1979, dated 1981)
Structures can show the parent of a compound that is named as a salt. Where two headings read alike, the source gives them in different places.

Columns and labels:
thrombin = assay: Amperometric determination of substrate hydrolysis by thrombin (oxidation current of liberated amine); type: biochemical
Procedure: (§1) (a) A potentiostat, which is intended to maintain a constant potential difference between the measurement electrode and the reference electrode. A saw-tooth function generator, which generates a potential which varies between -0.1 and +0.4 V at a rate of 0.2 V/second. A graphic recorder with a good dynamic performance. A polytetrafluoroethylene cell which has a capacity of 5 ml and can hold three electrodes.
(§2) (e) Solutions: The stock solutions of the enzyme (solution E) and of the substrate (solution S) are freshly prepared. The test solution, to which a given amount of E is added at the time t=0 of the kinetics, is termed A. The buffer, which has a pH of 8.15, is made up of 0.025 M Veronal^(R) and NaCl with an ionic strength of F=0.15.
(§3) (f) Example of an electrode made of carbon paste: 15 g of pure carbon powder are mixed with 9 ml of paraffin oil, for example that sold commercially under the trade name Nujol^(R). An electrode with a surface area of 0.16 cm^2 and a thickness of 3 mm can be shaped from the homogeneously mixed paste.
(§4) The measurement electrode is preconditioned in solution A without the enzyme, in order to impart to it a reproducible and precisely defined surface state before each cycle.
(§5) The preconditioning is achieved by applying a potential which has a saw-tooth profile and changes as a function of time, the potential varying between -0.1 and +b 0.4 V and changing at a rate of 0.2 V/second.
(§6) The electrode can then be used for the kinetic determinations, for which purpose the same saw-tooth potential as for the conditioning is applied every 60 seconds.
After deducting the base current at the particular potential, the current levels recorded at the maximum value of any one wave i=f(U) are proportional to the concentration of the electroactive species liberated during the hydrolysis. In the case of short hydrolysis times, a plot of the current levels against time is linear. The relationship between the enzyme concentration E (in μg/ml) and the rate of hydrolysis at time 0 (represented by the ratio (di/dt)o in μA/minute, that is to say by the gradient of the curve i=f (t) at the origin) for an electrode with a surface area of 1 cm^2 is given by the following formula: […]
The procedure is similar to that for trypsin and is also suitable for the determination of further enzymes, also with the aid of other substrates.
These constants (summarized in Table II below) have been obtained with the aid of the electrode prepared in accordance with Example I f).

trypsin = assay: Amperometric determination of substrate hydrolysis by trypsin (oxidation current of liberated pADA); type: biochemical
Procedure: as §1
(b) Measurement electrode: This consists of a platinum plate which is surrounded by a cylinder of polytetrafluoroethylene (surface area 0.0314 cm^2).
as §2, §3, §4, §5, §6
After deducting the base current at the particular potential, the current levels recorded at the maximum value of any one wave i=f(U) are proportional to the concentration of the electroactive species liberated during the hydrolysis. […]
The enzyme solution is added at the end of the potentiodynamic cycle which serves to record the base current (the base current has been shifted downwards; it is represented by the broken line). The concentrations corresponding to the current maxima can be read off from the calibration curve (FIG. 3). The conversion is determined as a function of time (maximum 30 minutes). […]
The reciprocal value of the rate (1/V) has been plotted as the ordinate and the reciprocal value of the concentration of the substrate (1/S) has been plotted as the abscissa. The reciprocal value of the rate 1/V was expressed as follows: either as (μA/minute--10 μg of enzyme)^-1 or as (μ mol×10^3 of pADA/minute--10 μg of enzyme). The points o represent an average value of 10 measured values for the rate and the points X represent a graphical average value. […]

[1] = carbon paste electrode, buffer a: Tris (0.025 M), NaCl (0.12 M), glycine (0.05 M), DMSO 4.76%, 20° C., pH 8.3
[2] = carbon paste electrode, buffer a: Tris (0.025 M), NaCl (0.12 M), glycine (0.05 M), DMSO 4.76%, 20° C., pH 8.3, read-out: KM: Michaelis constant

## N=C(N)NCCC[C@H](NC(=O)[C@@H]1CCCCN1C(=O)[C@H](N)Cc1ccccc1)C(=O)Nc1ccc(Nc2ccccc2)cc1 [HDL, H-D-phenylalanyl-L-pipecolyl-L-arginyl-p-amino-diphenylamide dihydrochloride]
thrombin; 0.1 mM of substrate with 0.01 I.U. of thrombin for one minute, Veronal buffer
  Standardization: current after hydrolysis for one minute: 0.217 μA/cm^2
thrombin; [1]
  VM: maximum rate: 0.10 μmole/minute I.U.
thrombin; [2]
  Km: 10 µM
thrombin; hydrolysis with thrombin, procedure similar to that for trypsin, Veronal buffer
  Vm: 1.1×10^-7 moles/minute×I.U.
thrombin; hydrolysis with thrombin, procedure similar to that for trypsin, Veronal buffer, read-out: Km
  Km: 10 µM

## N=C(N)NCCCC(NC(=O)c1ccccc1)C(=O)Nc1ccc(Nc2ccccc2)cc1 (racemic) [D,L-BAPADA, benzoyl-D,L-arginine-p-aminodiphenyl-amide, HCl]
trypsin; carbon paste electrode, buffer b: Veronal (0.025 M), NaCl (0.12 M), DMSO 6.35%, 30° C., pH 8.4
  VM: maximum rate: 0.00096 μmole/minute I.U.
trypsin; carbon paste electrode, buffer b: Veronal (0.025 M), NaCl (0.12 M), DMSO 6.35%, 30° C., pH 8.4, read-out: KM: Michaelis constant
  Km: 800 µM
trypsin; hydrolysis of the substrate with 1 mM of trypsin for one minute, per cm^2 of electrode surface area, Veronal buffer pH 8.15
  Standardization: current after hydrolysis for one minute: 0.295 μA/cm^2
trypsin; hydrolysis with trypsin 10 μg/ml, 30° C., pH 8.15 (TRIS), DMSO 6.35%, LINEWEAVER-BURK diagram FIG. 7, read-out: MICHAELIS-MENTEN constant Km
  Km: 800 µM

## COc1cc(NC(=O)[C@H](CCCNC(=N)N)NC(=O)[C@@H]2CCCCN2C(=O)[C@H](N)Cc2ccccc2)cc2ccccc12 [H--D--Phe--Pip--Arg--4--MBNA]
thrombin; [1]
  VM: maximum rate: 0.020 μmole/minute I.U.
thrombin; [2]
  Km: 37 µM
